Reference: ChEMBL document CHEMBL1201862, “PubChem BioAssay data set” (2004)
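Exposure lasted 48 hours, with cells grown in 96-well plates and compounds tested at five concentrations. Abbreviation: GI50, concentration required for 50% inhibition of growth.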 Active and inactive are the calls of the source. No stated cut-off is given here; in the data, active = GI50 up to about 1.1 µM and inactive = higher.

Tests used:
Assay in all cases: DTP human tumour cell line panel, 48 h
A549 = test system: A549
CCRF-CEM = test system: CCRF-CEM
COLO 205 = test system: COLO 205
DMS-114 = test system: DMS-114
EKVX = test system: EKVX
HCT-116 = test system: HCT-116
HL-60 = test system: HL-60
HOP-62 = test system: HOP-62
HOP-92 = test system: HOP-92
HT-29 = test system: HT-29
IGROV-1 = test system: IGROV-1
K562 = test system: K562
KM-20L2 = test system: KM-20L2
KM12 = test system: KM12
LXFL 529 = test system: LXFL 529
M14 = test system: M14
M19-MEL = test system: M19-MEL
MOLT-4 = test system: MOLT-4
Malme-3M = test system: Malme-3M
NCI-H23 = test system: NCI-H23
NCI-H460 = test system: NCI-H460
NCI-H522 = test system: NCI-H522
OVCAR-3 = test system: OVCAR-3
OVCAR-4 = test system: OVCAR-4
OVCAR-5 = test system: OVCAR-5
OVCAR-8 = test system: OVCAR-8
RPMI-8226 = test system: RPMI-8226
RXF 393 = test system: RXF 393
SF-268 = test system: SF-268
SF-295 = test system: SF-295
SF-539 = test system: SF-539
SK-MEL-28 = test system: SK-MEL-28
SK-MEL-2 = test system: SK-MEL-2
SK-MEL-5 = test system: SK-MEL-5
SK-OV-3 = test system: SK-OV-3
SN12C = test system: SN12C
SNB-19 = test system: SNB-19
SNB-75 = test system: SNB-75
SR = test system: SR
SW-620 = test system: SW-620
TK-10 = test system: TK-10
U-251 = test system: U-251
UACC-257 = test system: UACC-257
UACC-62 = test system: UACC-62
UO-31 = test system: UO-31
XF498 = test system: XF498
786-0 = test system: 786-0
A498 = test system: A498
ACHN = test system: ACHN
CAKI-1 = test system: CAKI-1
DLD-1 = test system: DLD-1
DMS-273 = test system: DMS-273
HCT-15 = test system: HCT-15
LOX IMVI = test system: LOX IMVI
NCI-H226 = test system: NCI-H226
SNB-78 = test system: SNB-78

O=C(NN1C(=O)C(Cl)C1c1cccc([N+](=O)[O-])c1)c1ccccc1O (stereo not given)
GI50 (A549): > 100 µM (inactive)
GI50 (CCRF-CEM): 35.6 µM (inactive)
GI50 (COLO 205): > 100 µM (inactive)
GI50 (DMS-114): > 100 µM (inactive)
GI50 (EKVX): > 100 µM (inactive)
GI50 (HCT-116): > 100 µM (inactive)
GI50 (HL-60): > 100 µM (inactive)
GI50 (HOP-62): > 100 µM (inactive)
GI50 (HOP-92): > 100 µM (inactive)
GI50 (HT-29): > 100 µM (inactive)
GI50 (IGROV-1): 76.4 µM (inactive)
GI50 (K562): > 100 µM (inactive)
GI50 (KM-20L2): > 100 µM (inactive)
GI50 (KM12): > 100 µM (inactive)
GI50 (LXFL 529): > 100 µM (inactive)
GI50 (M14): > 100 µM (inactive)
GI50 (M19-MEL): > 100 µM (inactive)
GI50 (MOLT-4): > 100 µM (inactive)
GI50 (Malme-3M): 59.8 µM (inactive)
GI50 (NCI-H23): > 100 µM (inactive)
GI50 (NCI-H460): > 100 µM (inactive)
GI50 (NCI-H522): 28.3 µM (inactive)
GI50 (OVCAR-3): > 100 µM (inactive)
GI50 (OVCAR-4): > 100 µM (inactive)
GI50 (OVCAR-5): > 100 µM (inactive)
GI50 (OVCAR-8): > 100 µM (inactive)
GI50 (RPMI-8226): > 100 µM (inactive)
GI50 (RXF 393): > 100 µM (inactive)
GI50 (SF-268): > 100 µM (inactive)
GI50 (SF-295): > 100 µM (inactive)
GI50 (SF-539): > 100 µM (inactive)
GI50 (SK-MEL-28): > 100 µM (inactive)
GI50 (SK-MEL-2): > 100 µM (inactive)
GI50 (SK-MEL-5): > 100 µM (inactive)
GI50 (SK-OV-3): > 100 µM (inactive)
GI50 (SN12C): > 100 µM (inactive)
GI50 (SNB-19): 68.5 µM (inactive)
GI50 (SNB-75): > 100 µM (inactive)
GI50 (SR): > 100 µM (inactive)
GI50 (SW-620): > 100 µM (inactive)
GI50 (TK-10): > 100 µM (inactive)
GI50 (U-251): > 100 µM (inactive)
GI50 (UACC-257): > 100 µM (inactive)
GI50 (UACC-62): > 100 µM (inactive)
GI50 (UO-31): 71.9 µM (inactive)
GI50 (XF498): > 100 µM (inactive)

COc1c(Br)cc(Br)c(OC)c1-c1ccc[nH]1
GI50 (786-0): > 100 µM (inactive)
GI50 (A498): > 100 µM (inactive)
GI50 (A549): > 100 µM (inactive)
GI50 (ACHN): > 100 µM (inactive)
GI50 (CAKI-1): 13.3 µM (inactive)
GI50 (CCRF-CEM): 78.9 µM (inactive)
GI50 (COLO 205): > 100 µM (inactive)
GI50 (DLD-1): 62.5 µM (inactive)
GI50 (DMS-114): 74.6 µM (inactive)
GI50 (DMS-273): 87.9 µM (inactive)
GI50 (EKVX): > 100 µM (inactive)
GI50 (HCT-116): 97.3 µM (inactive)
GI50 (HCT-15): 55.8 µM
GI50 (HL-60): 31.6 µM (inactive)
GI50 (HOP-62): > 100 µM (inactive)
GI50 (HOP-92): 37.3 µM (inactive)
GI50 (HT-29): 38.8 µM (inactive)
GI50 (IGROV-1): 53.6 µM (inactive)
GI50 (K562): 22.3 µM (inactive)
GI50 (KM12): > 100 µM (inactive)
GI50 (LOX IMVI): > 100 µM (inactive)
GI50 (LXFL 529): > 100 µM (inactive)
GI50 (M14): 75.7 µM (inactive)
GI50 (M19-MEL): 91 µM (inactive)
GI50 (MOLT-4): 46.8 µM (inactive)
GI50 (NCI-H226): 43.9 µM (inactive)
GI50 (NCI-H23): > 100 µM (inactive)
GI50 (NCI-H460): > 100 µM (inactive)
GI50 (NCI-H522): 55.1 µM (inactive)
GI50 (OVCAR-3): > 100 µM (inactive)
GI50 (OVCAR-4): 22.1 µM (inactive)
GI50 (OVCAR-5): > 100 µM (inactive)
GI50 (OVCAR-8): > 100 µM (inactive)
GI50 (RPMI-8226): 80.4 µM (inactive)
GI50 (SF-268): > 100 µM (inactive)
GI50 (SF-295): > 100 µM (inactive)
GI50 (SF-539): > 100 µM (inactive)
GI50 (SK-MEL-28): > 100 µM (inactive)
GI50 (SK-MEL-2): 45.3 µM (inactive)
GI50 (SK-MEL-5): > 100 µM (inactive)
GI50 (SK-OV-3): > 100 µM (inactive)
GI50 (SNB-75): 22.1 µM (inactive)
GI50 (SNB-78): > 100 µM (inactive)
GI50 (SW-620): 35 µM (inactive)
GI50 (TK-10): 5.83 µM (inactive)
GI50 (U-251): > 100 µM (inactive)
GI50 (UACC-257): > 100 µM (inactive)
GI50 (UACC-62): 56.1 µM (inactive)
GI50 (UO-31): 43.3 µM (inactive)

COc1ccccc1N1C(Cl)C(=O)C1c1c[nH]c2ccccc12 (stereo not given)
GI50 (A549): > 100 µM (inactive)
GI50 (CCRF-CEM): > 100 µM (inactive)
GI50 (COLO 205): > 100 µM (inactive)
GI50 (DMS-114): > 100 µM (inactive)
GI50 (EKVX): > 100 µM (inactive)
GI50 (HCT-116): > 100 µM (inactive)
GI50 (HL-60): > 100 µM (inactive)
GI50 (HOP-62): > 100 µM (inactive)
GI50 (HOP-92): > 100 µM (inactive)
GI50 (HT-29): > 100 µM (inactive)
GI50 (IGROV-1): > 100 µM (inactive)
GI50 (K562): > 100 µM (inactive)
GI50 (KM-20L2): > 100 µM (inactive)
GI50 (KM12): > 100 µM (inactive)
GI50 (LXFL 529): > 100 µM (inactive)
GI50 (M14): > 100 µM (inactive)
GI50 (M19-MEL): > 100 µM (inactive)
GI50 (MOLT-4): > 100 µM (inactive)
GI50 (NCI-H23): > 100 µM (inactive)
GI50 (NCI-H460): > 100 µM (inactive)
GI50 (NCI-H522): > 100 µM (inactive)
GI50 (OVCAR-3): > 100 µM (inactive)
GI50 (OVCAR-4): > 100 µM (inactive)
GI50 (OVCAR-5): 13.2 µM (inactive)
GI50 (OVCAR-8): > 100 µM (inactive)
GI50 (RPMI-8226): > 100 µM (inactive)
GI50 (RXF 393): > 100 µM (inactive)
GI50 (SF-268): > 100 µM (inactive)
GI50 (SF-295): > 100 µM (inactive)
GI50 (SF-539): > 100 µM (inactive)
GI50 (SK-MEL-28): > 100 µM (inactive)
GI50 (SK-MEL-2): > 100 µM (inactive)
GI50 (SK-MEL-5): > 100 µM (inactive)
GI50 (SK-OV-3): > 100 µM (inactive)
GI50 (SN12C): > 100 µM (inactive)
GI50 (SNB-19): 26.7 µM (inactive)
GI50 (SNB-75): > 100 µM (inactive)
GI50 (SR): > 100 µM (inactive)
GI50 (SW-620): > 100 µM (inactive)
GI50 (TK-10): > 100 µM (inactive)
GI50 (U-251): > 100 µM (inactive)
GI50 (UACC-257): > 100 µM (inactive)
GI50 (UACC-62): > 100 µM (inactive)
GI50 (UO-31): > 100 µM (inactive)
GI50 (XF498): > 100 µM (inactive)

O=C(/C=C/c1ccccc1F)C(c1ccccc1)c1ccccc1
GI50 (786-0): 2.42 µM (inactive)
GI50 (A549): 3.76 µM (inactive)
GI50 (ACHN): 2.56 µM (inactive)
GI50 (CAKI-1): 5.36 µM (inactive)
GI50 (CCRF-CEM): 2.31 µM (inactive)
GI50 (DLD-1): 3.24 µM (inactive)
GI50 (DMS-273): 3.85 µM (inactive)
GI50 (EKVX): 11.2 µM (inactive)
GI50 (HCT-116): 2.24 µM (inactive)
GI50 (HCT-15): 4.31 µM
GI50 (HL-60): 3.07 µM (inactive)
GI50 (HOP-92): 2 µM (inactive)
GI50 (HT-29): 2.75 µM (inactive)
GI50 (IGROV-1): 10.8 µM (inactive)
GI50 (K562): 3.7 µM (inactive)
GI50 (KM-20L2): 3.8 µM (inactive)
GI50 (KM12): 3.95 µM (inactive)
GI50 (LOX IMVI): 1.71 µM (inactive)
GI50 (LXFL 529): 3.37 µM (inactive)
GI50 (M14): 2.62 µM (inactive)
GI50 (MOLT-4): 1.24 µM (inactive)
GI50 (Malme-3M): 10.8 µM (inactive)
GI50 (NCI-H226): 11.4 µM (inactive)
GI50 (NCI-H23): 4.22 µM (inactive)
GI50 (NCI-H522): 2.62 µM (inactive)
GI50 (OVCAR-3): 3.97 µM (inactive)
GI50 (RPMI-8226): 3.53 µM (inactive)
GI50 (SF-268): 3.11 µM (inactive)
GI50 (SF-295): 2.06 µM (inactive)
GI50 (SF-539): 2.2 µM (inactive)
GI50 (SK-MEL-28): 2.72 µM (inactive)
GI50 (SK-MEL-2): 2.51 µM (inactive)
GI50 (SK-OV-3): 2.01 µM (inactive)
GI50 (SN12C): 4 µM (inactive)
GI50 (SNB-19): 2.14 µM (inactive)
GI50 (SNB-75): 4.76 µM (inactive)
GI50 (SNB-78): 5.93 µM (inactive)
GI50 (SR): 3.41 µM (inactive)
GI50 (SW-620): 3.83 µM (inactive)
GI50 (TK-10): 4.72 µM (inactive)
GI50 (U-251): 3.74 µM (inactive)
GI50 (UACC-257): 4.82 µM (inactive)
GI50 (UACC-62): 2.08 µM (inactive)
GI50 (UO-31): 12.3 µM (inactive)
GI50 (XF498): 1.99 µM (inactive)
